In patent US8242144B2, “Stilbenes and chalcones for the prevention and treatment of cardiovascular diseases” (Resverlogix Corp., priority 2004, dated 2012):

How the values were obtained:
human ApoA-I promoter [1] = experiment: ApoA-I promoter induction in Caco-2 intestinal cells (pAI.474-Luc luciferase reporter); type: cell-based; conditions: Caco-2 cells, luciferase activity vs untreated/control, average values at 15 μM, 48 hours incubation
Procedure: Briefly, the promoter region of the gene encoding human ApoA-I was isolated and ligated upstream of the firefly luciferase gene to construct the reporter plasmid pAI.474-Luc. This reporter plasmid and pRSV-β-galactosidase (as a control for transfection efficiency) were co-transfected to Caco-2 cells. The Caco-2 cells were then incubated in a MEM selection media containing 20% fetal calf serum supplemented with G418 (final concentration: 0.5 mg/mL, Gibco) to give established strains that stably express from the reporter gene. […] Cells were starved for 24 hrs in MEM selection media containing 0.5% FBS. Then, a solution of a compound of the invention in DMSO or other appropriate solvent was added to the wells at a final concentration of 0 to 100 μM in MEM selection media containing 0.5% FBS.
Measures of luciferase activity were normalized to lysate protein concentrations, measured using Bradford Reagent (BioRad Protein Assay reagent Cat#500-0006). The luciferase activity of cells treated with various concentrations of test compounds was compared to that of control sample (i.e., solvent without any compound of the present invention added) and untreated samples.

human ApoA-I promoter [2] = experiment: ApoA-I promoter induction in HepG2 liver cells (pAI.474-Luc luciferase reporter); type: cell-based; conditions: luciferase activity vs untreated/control, average values at 15 μM, 48 hours incubation
Procedure: This study determined whether compounds of the invention have an effect on ApoA-I promoter activity expression in HepG2 cells, a liver cell line. Cells were grown under conditions recommended by the ATCC and summarized by Wong.
The promoter region of the gene encoding human ApoA-I was isolated and ligated upstream the structure gene of firefly luciferase to construct a reporter plasmid (pAI.474-Luc). The reporter plasmid, along with pRSV-β-galactosidase (as a control for transfection efficiency) were co-transfected into HepG2 cells. The cells were then incubated in an MEM selection medium containing 20% fetal calf serum supplemented with G418 (final concentration: 0.5 mg/mL, Gibco) to give established strains that stably express from the reporter gene. The strains were seeded to a 6-well culture plates and incubated for 48 hours at 37° C. under 5% carbon dioxide. Cells were starved for 24 hrs in MEM selection media containing 0.5% FBS. Then, a solution of the compounds of the invention in DMSO (or other appropriate solvent) was added to the wells at a final concentration of 0 to 100 μM in MEM selection media containing 0.5% FBS.
After further incubation for 48 hours, the cells were harvested and lysed using Reporter Lysis Buffer (PROMEGA E3971), and 50 μL of luciferase assay reagent (PROMEGA E4550 Luciferase Reporter 1000 assay system) were added to measure luciferase activity with a luminometer (Fluoroskan Ascent FL from Thermo electron Corporation). Measures of luciferase activity were normalized to lysate protein concentrations, measured using Bradford Reagent (Biorad Protein Assay reagent Cat#500-0006).

[3] = Caco-2 permeability (in vitro Caco-2 intestinal transport model); type: in vitro ADME, human; conditions: human, Caco-2
Text: (§1) The Caco-2 cell drug transport model is widely used for screening compounds in drug discovery to assess intestinal transport and predict absorption rates. […] Sun et al., “In vitro testing of drug absorption for drug ‘developability’ assessment: forming an interface between in vitro preclinical data and clinical outcome,” Curr. Opin. Drug Discov. Devel.

human ApoA-I promoter [4] = conditions: Caco-2 cells, reported by Wong; cited from earlier work
Caco-2 cells = experiment: Caco-2 permeability (in vitro Caco-2 intestinal transport model); type: in vitro ADME, human; conditions: in vitro Caco-2 intestinal transport model
Text: as §1

Structure (SMILES)	ApoA-I Promoter Induction (human ApoA-I promoter [1])	melting point [°C]	other results
O=C(/C=C/c1ccc(O)cc1)c1ccccc1 [4-Hydroxy-chalcone]	increased	–	–
Oc1ccc(CCc2ccc(O)cc2)cc1 [Example 17, 4-[4-Hydroxy-phenethyl]-phenol]	increased	–	ApoA-I Promoter Induction (human ApoA-I promoter [2]): increased
O=S(=O)(Nc1ccc(O)cc1)c1ccc(O)cc1 [Example 19, 4-Hydroxy-N-(4-hydroxyphenyl)-benzenesulfonamide]	increased	–	–
CN(C)C(=O)c1cc(O)ccc1/C=C/c1ccc(O)cc1 [Example 12, 5-Hydroxy-2-[2-(4-hydroxyphenyl)vinyl]-N,N-dimethyl-benzamide]	increased	183.5 to 187.7	–
Oc1ccc(/N=N/c2ccc(O)cc2)cc1 [Example 21, 4-(4-Hydroxy-phenyl)-azophenol]	–	–	Papp [3]: 8.73 ×10⁻⁶ cm/s
O=C(/C=C/c1ccc(O)cc1)c1ccc(O)cc1O [4,2′,4′-Trihydroxy-chalcone]	increased	–	–
NC(=O)c1cc(/C=C/c2ccc(O)cc2)ccc1O [Example 8, (E)-2-Hydroxy-5-(4-hydroxystyryl)benzamide]	increased	272 to 274	–
OCc1cc(O)ccc1/C=C/c1ccc(O)cc1 [Example 4, 3-Hydroxymethyl-4-[(E)-2-(4-hydroxy-phenyl)-vinyl]-phenol]	increased	223 to 225	Papp [3]: 1.79 ×10⁻⁶ cm/s
Oc1ccc(/C=C/c2cc(O)cc(O)c2)cc1 [Example 1, Resveratrol]	increased	–	ApoA-I Promoter Induction (human ApoA-I promoter [2]): increased
Oc1ccc(/C=C/c2cc(O)cc(O)c2)cc1 [resveratrol]	–	–	stimulation of ApoA-I promoter activity at 4, 8, 16 and 24 hours following administration (human ApoA-I promoter [4]): significant stimulation
CC(=O)Nc1cc(O)ccc1/C=C/c1ccc(O)cc1 [Example 11, N-{5-Hydroxy-2-[(E)-2-(4-hydroxyphenyl)vinyl]phenyl}-acetamide]	–	227 to 229	–
O=C(Oc1ccccn1)c1ccc(O)cc1 [Example 20, 4-Hydroxy-benzoic acid pyridin-2-yl ester]	–	–	Papp [3]: 2 ×10⁻⁶ cm/s
Oc1ccc(/C=C/c2ccc(O)cc2)cc1 [4,4′-dihydroxy-stilbene]	increased	–	ApoA-I Promoter Induction (human ApoA-I promoter [2]): increased
CS(=O)(=O)c1cc(O)ccc1/C=C/c1ccc(O)cc1 [Example 9, 4-[(E)-2-(4-Hydroxyphenyl)vinyl]-3-methanesulfonylphenol]	–	244 to 245	–
CCOC(=O)c1cc(/C=C/c2ccc(O)cc2)ccc1O [Example 7, (E)-Ethyl 2-hydroxy-5-(4-hydroxystyryl) benzoate]	increased	269 to 271	–
Nc1cc(O)ccc1/C=C/c1ccc(O)cc1 [Example 10, 3-Amino-4-[(E)-2-(4-hydroxy-phenyl)vinyl]phenol]	increased	229 to 232	–
CCCO [Propanol, reference compound]	–	–	% Transported Paap (Caco-2 cells): 10.1 ×10⁻⁶ cm/s
O=[N+]([O-])c1cc(O)ccc1/C=C/c1ccc(O)cc1 [Example 6, 3-Nitro-4-[(E)-2-(4-hydroxyphenyl)-vinyl]phenol]	increased	237 to 240	Papp [3]: 1.95 ×10⁻⁶ cm/s; ApoA-I Promoter Induction (human ApoA-I promoter [2]): increased
O=C(O)c1cc(/C=C/c2ccc(O)cc2)ccc1O [Example 5, 2-Hydroxy-5-[(E)-2-(4-hydroxyphenyl)vinyl]benzoic acid]	no	241 to 243	–
COc1ccc(C(=O)/C=C/c2ccc(O)cc2O)cc1 [2,4-Dihydroxy-4′-methoxy-chalcone]	increased	–	–
COc1cc(O)ccc1/C=C/c1ccc(O)cc1 [Example 3, 4-[(E)-2-(4-Hydroxy-phenyl)-vinyl]-3-methoxy-phenol]	increased	192 to 194	ApoA-I Promoter Induction (human ApoA-I promoter [2]): increased
COc1ccc(/C=C/C(=O)c2ccccc2)cc1 [4-Methoxy-chalcone]	increased	–	–
Oc1ccc(/C=C/c2ccc(O)nc2)cc1 [Example 2, 5-[(E)-2-(4-Hydroxy-phenyl)-vinyl]-pyridin-2-ol]	increased	–	–
